Patent publication US9481648B2, “Kinase inhibitors” (Respivert Limited, priority 2013, dated 2016)
Read-outs that look alike come from different tables or passages of the source.

Tests used:
[1] = test system: TNBS-induced colitis in BDF1 mice; test: TNBS-induced colitis in mice (in vivo iv); design: species or system mouse; conditions: for inflammatory cell infiltrate in the reticular and laminar propria zones / ulcer grade and epithelial repair compared to the vehicle control: 5 mg/kg orally, 2 days; for inflammatory cell infiltrate in the reticular and laminar propria zones / ulcer grade and epithelial repair compared to the vehicle control / activity in in vivo model of colonic inflammation (histopathology analysis): TNBS-induced colitis, mice; for activity in in vivo model of colonic inflammation (histopathology analysis): conducted over 2 days
Method: Non-fasted, 10-12 week old, male BDF1 mice are dosed by oral gavage twice daily with either vehicle (5 mL/kg), reference item (Budesonide 2.5 mg/kg) or test compound (1 or 5 mg/kg) one day before (Day −1) stimulation of the inflammatory response by treatment with 2,4,6-trinitrobenzenesulphonic acid (TNBS) (15 mg/mL in 50% ethanol/50% saline). On Day 0 of the study TNBS (200 μL) is administered intra-colonically via a plastic catheter with BID dosing of the vehicle, reference or test compound continuing for 2 or 4 days. During the study, animals are weighed every day and stool observations are made and recorded as a score, based on stool consistency. At the time of sacrifice on Day 2 (or Day 4), the large intestine is removed and the length and weight recorded. Sections of the colon are taken for histopathology scoring to determine disease severity.

[2] = Plasma pharmacokinetics in rats, single intravenous or oral administration; assay type: in vivo, rat (male Wistar); conditions: for Fpo: oral 5 mg/kg, vehicle C (Example 4) or B
Method: Studies were conducted by Sai Life Sciences (Hinjewadi, Pune, India) to investigate the plasma pharmacokinetics and total colon tissue distribution of compounds of the invention. In particular, pharmacokinetic studies were carried out in: • male C57BL/6 mice, following a single oral administration; and • male Wistar rats following a single intravenous or oral administration.

[3] = biological target: CYP3A4 (Homo sapiens (Human), UniProt P08684); test: CYP3A4 inhibition study; assay type: in vitro ADME; conditions: for inhibition at 15 µM: human, read-out: 15 μM % Inh
CYP3A4, sequence (P08684 whole entry): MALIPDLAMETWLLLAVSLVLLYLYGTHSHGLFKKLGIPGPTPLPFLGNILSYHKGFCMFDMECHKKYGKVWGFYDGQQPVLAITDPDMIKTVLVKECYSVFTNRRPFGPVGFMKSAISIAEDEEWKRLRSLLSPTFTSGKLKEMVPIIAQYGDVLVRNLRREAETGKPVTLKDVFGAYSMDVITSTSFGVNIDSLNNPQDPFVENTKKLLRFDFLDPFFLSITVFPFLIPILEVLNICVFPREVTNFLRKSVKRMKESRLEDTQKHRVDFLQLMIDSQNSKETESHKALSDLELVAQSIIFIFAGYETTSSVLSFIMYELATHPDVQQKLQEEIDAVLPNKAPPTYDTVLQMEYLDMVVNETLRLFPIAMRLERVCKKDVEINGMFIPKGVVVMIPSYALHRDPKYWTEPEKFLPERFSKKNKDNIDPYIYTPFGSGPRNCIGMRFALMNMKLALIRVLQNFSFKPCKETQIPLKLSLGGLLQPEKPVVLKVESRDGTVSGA
Method: Assessment of certain in vitro ADME (absorption, distribution, metabolism, and excretion) parameters for certain compounds of the invention was conducted by BioFocus (Saffron Walden, UK).

[4] = test system: intestinal mucosa biopsies from the inflamed regions of the colon of ulcerative colitis (IBD) patients; test: Human biopsy assay (assay l); assay type: cell-based; conditions: 1 μg/mL, 24 hours, biopsies from ulcerative colitis patients
Method: Intestinal mucosa biopsies are obtained from the inflamed regions of the colons of IBD patients. The biopsy material is cut into small pieces (2-3 mm) and placed on steel grids in an organ culture chamber at 37° C. in a 5% CO2/95% O2 atmosphere in serum-free media. DMSO control or test compounds at the desired concentration are added to the tissue and incubated for 24 hr in the organ culture chamber. The supernatant is harvested for determination of IL-6, IL-8, IL-1β and TNFα levels by R&D ELISA.

[5] = biological target: B-Raf (V600E) (Homo sapiens (Human), UniProt P15056, V600E); test: KINOMEscan binding of kinase to its standard ligand
B-Raf (V600E), sequence (P15056 whole entry V600E): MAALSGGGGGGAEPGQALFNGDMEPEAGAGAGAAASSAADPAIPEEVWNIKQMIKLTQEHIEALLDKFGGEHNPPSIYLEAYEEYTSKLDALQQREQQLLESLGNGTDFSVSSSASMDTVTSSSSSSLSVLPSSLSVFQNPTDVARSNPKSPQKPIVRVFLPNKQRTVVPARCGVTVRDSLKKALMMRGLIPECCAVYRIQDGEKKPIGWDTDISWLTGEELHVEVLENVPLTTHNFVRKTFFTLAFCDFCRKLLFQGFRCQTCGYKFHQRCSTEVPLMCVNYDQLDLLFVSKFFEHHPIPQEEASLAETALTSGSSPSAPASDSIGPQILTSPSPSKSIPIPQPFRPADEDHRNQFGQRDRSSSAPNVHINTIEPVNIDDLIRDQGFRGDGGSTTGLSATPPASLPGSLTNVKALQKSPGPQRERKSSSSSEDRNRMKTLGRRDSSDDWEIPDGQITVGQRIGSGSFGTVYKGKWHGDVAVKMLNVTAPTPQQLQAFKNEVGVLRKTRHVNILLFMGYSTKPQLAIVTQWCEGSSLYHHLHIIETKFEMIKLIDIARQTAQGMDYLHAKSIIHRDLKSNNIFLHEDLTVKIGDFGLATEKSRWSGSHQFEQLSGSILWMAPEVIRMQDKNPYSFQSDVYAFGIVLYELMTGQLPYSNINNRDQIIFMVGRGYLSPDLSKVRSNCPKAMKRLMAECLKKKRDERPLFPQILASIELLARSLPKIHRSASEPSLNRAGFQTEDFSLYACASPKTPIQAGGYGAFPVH
Method: (§1) Kinase enzyme binding activities of compounds disclosed herein may be determined using a proprietary assay which measures active site-directed competition binding to an immobilized ligand (Fabian, M. A. et al., Nature Biotechnol., 2005, 23:329-336). These assays may be conducted by DiscoverX (formerly Ambit; San Diego, Calif.). The percentage inhibition produced by incubation with a test compound may be calculated relative to the non-inhibited control.

[6] = biological target: B-Raf (Homo sapiens (Human), UniProt P15056); test: as above
B-Raf, sequence (P15056 whole entry): as the sequence (P15056 whole entry V600E) above, with E600V counted along it
Method: as §1

[7] = test system: non-mutant kinases; assay type: binding; conditions: for KinomeScan Selectivity Score S(10): (number of non-mutant kinases with % Ctrl <10)/(number of non-mutant kinases tested); for KinomeScan Selectivity Score S(35): (number of non-mutant kinases with % Ctrl <35)/(number of non-mutant kinases tested); for number of individual kinase hits, S(1): non-mutant kinases with % Ctrl <1; for number of individual kinase hits, S(10): non-mutant kinases with % Ctrl <10; for number of individual kinase hits, S(35): non-mutant kinases with % Ctrl <35; for KinomeScan Selectivity Score S(1): (number of non-mutant kinases with % Ctrl <1)/(number of non-mutant kinases tested); for selectivity compared to the Reference Compound: as evidenced by lower selectivity scores
Method: These assays may be conducted by DiscoverX (formerly Ambit; San Diego, Calif.). The percentage inhibition produced by incubation with a test compound may be calculated relative to the non-inhibited control.

[8] = biological target: T1, Syk (Homo sapiens (Human), UniProt P43405); test: Syk enzyme inhibition (FRET, Z-LYTE); assay type: biochemical
Summary of the method: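 Syk or c-Src enzyme (3000 or 2000 ng/mL solutions) was preincubated 2 h at RT with compound solutions at 1, 0.1, 0.01 or 0.001 µg/mL. Z-LYTE FRET peptide (8 µM solution) and ATP (800 µM solution for c-Src, 60 µM for Syk) were then added for 1 h, followed by protease development for 1 h. Phosphorylation was read as the coumarin/fluorescein emission ratio.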

[9] = biological target: p38 MAPKα (Homo sapiens (Human), UniProt Q16539); test: KINOMEscan enzyme binding assay (dissociation constant)
p38 MAPKα, sequence (Q16539 whole entry): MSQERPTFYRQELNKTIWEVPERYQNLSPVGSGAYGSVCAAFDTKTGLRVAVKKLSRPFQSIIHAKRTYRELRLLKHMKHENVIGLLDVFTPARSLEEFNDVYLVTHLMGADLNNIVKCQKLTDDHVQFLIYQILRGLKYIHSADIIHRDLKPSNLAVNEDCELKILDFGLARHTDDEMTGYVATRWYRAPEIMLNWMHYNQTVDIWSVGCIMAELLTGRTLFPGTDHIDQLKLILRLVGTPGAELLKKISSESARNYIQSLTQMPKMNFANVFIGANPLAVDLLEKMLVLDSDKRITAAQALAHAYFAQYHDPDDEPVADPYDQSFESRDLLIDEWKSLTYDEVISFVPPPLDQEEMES
Method: as §1

[10] = biological target: T1, Syk; test: as above
Method: as §1

[11] = biological target: Lck (Homo sapiens (Human), UniProt P06239); test: as above
Lck, sequence (P06239 whole entry): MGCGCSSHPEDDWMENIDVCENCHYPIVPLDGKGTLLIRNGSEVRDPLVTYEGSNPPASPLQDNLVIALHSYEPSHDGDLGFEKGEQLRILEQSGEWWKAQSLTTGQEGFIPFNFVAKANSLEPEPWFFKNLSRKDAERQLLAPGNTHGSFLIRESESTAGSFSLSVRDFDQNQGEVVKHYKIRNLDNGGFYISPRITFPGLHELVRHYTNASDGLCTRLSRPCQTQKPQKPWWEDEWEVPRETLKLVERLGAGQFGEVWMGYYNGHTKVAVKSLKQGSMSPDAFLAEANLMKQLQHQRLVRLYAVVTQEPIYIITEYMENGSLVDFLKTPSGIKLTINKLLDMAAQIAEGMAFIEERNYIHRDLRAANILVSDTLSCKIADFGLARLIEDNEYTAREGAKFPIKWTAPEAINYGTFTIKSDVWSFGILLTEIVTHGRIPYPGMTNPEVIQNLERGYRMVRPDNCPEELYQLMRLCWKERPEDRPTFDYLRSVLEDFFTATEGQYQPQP
Method: as §1

[12] = TNBS-induced colitis in mice, 5 mg/kg oral
[13] = male, Wistar, rat, plasma, po, 5 mg/kg
[14] = male, Wistar, rat, plasma, po, 5 mg/kg, read-out: Median plasma concentration
[15] = male, Wistar, rat, plasma, rats, intravenous 0.25 mg/kg

C#Cc1cc(Nc2nccc(Oc3ccc(NC(=O)Nc4cc(C(C)(C)C)cc(NS(C)(=O)=O)c4OC)c4ccccc34)n2)cc(C(=O)NCCOCCOCCOC)c1 [Example 16]
inflammatory cell infiltrate in the reticular and laminar propria zones [1]: marked reduction | ulcer grade and epithelial repair compared to the vehicle control [1]: marked improvements | activity in in vivo model of colonic inflammation (histopathology analysis) [1]: substantial activity | Fpo ([2]; rats): 0.0% | 15 μM % Inh ([3]; CYP3A4, 0 min preincubation): 31% | 15 μM % Inh ([3]; CYP3A4, 30 min preincubation): 54% | cytokine (IL-1β, IL-6 and IL-8) release compared to the DMSO control [4]: significantly inhibited | effect on the binding of the kinase B-Raf (V600E) to its standard ligand [5]: did not have any significant effect | effect on the binding of the kinase B-Raf to its standard ligand [6]: did not have any significant effect | KinomeScan Selectivity Score S(10) ([7]; 50 nM): 0.023 | KinomeScan Selectivity Score S(35) ([7]; 50 nM): 0.068 | number of individual kinase hits, S(1) ([7]; 50 nM): 0 | number of individual kinase hits, S(10) ([7]; 50 nM): 9 | number of individual kinase hits, S(35) ([7]; 50 nM): 27 | KinomeScan Selectivity Score S(1) ([7]; 500 nM): 0.038 | KinomeScan Selectivity Score S(10) ([7]; 500 nM): 0.129 | KinomeScan Selectivity Score S(35) ([7]; 500 nM): 0.197 | number of individual kinase hits, S(1) ([7]; 500 nM): 15 | number of individual kinase hits, S(10) ([7]; 500 nM): 51 | number of individual kinase hits, S(35) ([7]; 500 nM): 78 | selectivity compared to the Reference Compound [7]: substantially improved selectivities

COc1c(NC(=O)Nc2ccc(Oc3ccnc(Nc4ccccc4)c3)c3ccccc23)cc(C(C)(C)C)cc1C(=O)NC1COC1 [Example 75, 5-(tert-Butyl)-2-methoxy-N-(oxetan-3-yl)-3-(3-(4-((2-(phenylamino)pyridin-4-yl)oxy)-naphthalen-1-yl)ureido)benzamide]
IC50 [8]: 0.214 µM | Kd [9]: 0.014 µM | Kd [10]: 0.0088 µM | Kd [11]: 0.0025 µM | inflammatory cell infiltrate in the reticular and laminar propria zones [1]: marked reduction | ulcer grade and epithelial repair compared to the vehicle control [1]: marked improvements | LP inflammation [1, 12]: 2.3 ± 0.4 | Ulcer grade [1, 12]: 3.0 ± 0.4 | activity in in vivo model of colonic inflammation (histopathology analysis) [1]: substantial activity | AUC(0-t) [2, 13]: 26.6 ng·h/mL | Cmax [2, 13]: 3.8 ng/mL | Tmax [2, 13]: 5.3 h | concentration at 0.25 h [2, 14]: 0 ng/mL | concentration at 0.5 h [2, 14]: 0 ng/mL | concentration at 1 h [2, 14]: 0 ng/mL | concentration at 2 h [2, 14]: 1.2 ng/mL | concentration at 4 h [2, 14]: 3.1 ng/mL | concentration at 6 h [2, 14]: 2 ng/mL | concentration at 8 h [2, 14]: 3.2 ng/mL | concentration at 12 h [2, 14]: 2.3 ng/mL | concentration at 24 h [2, 14]: 0 ng/mL | AUC(0-inf) [2, 15]: 952 ng·h/mL | AUC(0-t) [2, 15]: 948 ng·h/mL | half-life [2, 15]: 1.2 h | C0 ([2]; male, Wistar, rat, plasma, rats, intravenous 0.25 mg/kg in 5% DMSO-7.5% Solutol HS15-87.5% normal saline): 4000 ng/mL | Vd ([2]; male, Wistar, rat, plasma, rats, intravenous 0.25 mg/kg, read-out: Vss): 0.1 L/kg | CI ([2]; rats, intravenous 0.25 mg/kg): 4.4 mL/min/kg | Fpo ([2]; rats): 0.1% | IC50 ([3]; CYP3A4, 0 min preincubation): > 15 µM | IC50 ([3]; CYP3A4, 30 min preincubation): > 15 µM | inhibition at 15 µM ([3]; CYP3A4, 0 min preincubation): 3% | inhibition at 15 µM ([3]; CYP3A4, 30 min preincubation): 42% | effect on the binding of the kinase B-Raf (V600E) to its standard ligand [5]: did not have any significant effect | effect on the binding of the kinase B-Raf to its standard ligand [6]: did not have any significant effect | KinomeScan Selectivity Score S(1) ([7]; 50 nM): 0.005 | KinomeScan Selectivity Score S(10) ([7]; 50 nM): 0.035 | KinomeScan Selectivity Score S(35) ([7]; 50 nM): 0.099 | number of individual kinase hits, S(1) ([7]; 50 nM): 2 | number of individual kinase hits, S(10) ([7]; 50 nM): 14 | number of individual kinase hits, S(35) ([7]; 50 nM): 39 | KinomeScan Selectivity Score S(1) ([7]; 500 nM): 0.038 | KinomeScan Selectivity Score S(10) ([7]; 500 nM): 0.139 | KinomeScan Selectivity Score S(35) ([7]; 500 nM): 0.230 | number of individual kinase hits, S(1) ([7]; 500 nM): 15 | number of individual kinase hits, S(10) ([7]; 500 nM): 55 | number of individual kinase hits, S(35) ([7]; 500 nM): 91 | selectivity compared to the Reference Compound [7]: substantially improved selectivities
